Like-named read-outs stand apart in the source and are kept apart here.
System: human PBMC cells
Assay: cytokine/chemokine gene expression (TaqMan) in human PBMC
Conditions: Homo sapiens, PBMC, 4 h
Experimental: Materials and methods: 100 million frozen human PBMC cells were purchased from Allcells (100 million/vial). The cells were thawed and recovered for one day before 1.5-1.8 million cells in 900 μl RPMI1640 with 10% heat-inactivated FBS were seeded in each well of 24-well plates. Various compounds in DMSO stock (500×) were diluted 50-fold with the same media to make 10× compound stock for most compounds. 1 μL of 5 mg/mL PMA was diluted to 99 μL of the media to make 50 μg/mL PMA. For PMA with ionomycin treatment condition, 1.5 μL of 50 μg/mL PMA and 3 μL of 500 μg/mL ionomycin were added to 145.5 μL of the media to make 10× compound stock. Sources of the compounds are as follows: PMA from Abcam (Abcam #ab120297); Ionomycin from Sigma (Sigma #I0634); Resiquimod from Sellect Chem. (Selleckchem #S8133); and LPS from Sigma (Sigma #L6143).
Each treatment condition was performed in duplicates. After treatment, mRNA was extracted from cells and samples from duplicates were combined for TaqMan gene expression assays (ThermoFisher) in triplicates. Expression of 19 genes (IL-1β, IL-2, IL-4, IL-6, IL-8, IL-10, IL-13, IL-18, IL-12p70/IL-12A, IL-12p40/IL-12B, IFN-α, IFN-γ, GM-CSF/CSF2, CCL2/MCP-1, MIP1a/CCL3, TNF-α, MX1, OAS1, ISG15) along with two housekeeping gene controls, 18S and GAPDH, was determined. Target gene expression in each sample was determined by relative quantification (RQ) using the comparative Ct (ΔΔCT) method. This method measures the Ct difference (ΔCT) between target gene and the housekeeping genes (18S & GAPDH), then compares the ΔCT values of treated samples to DMSO-treated control samples. The mean ΔCT value of the DMSO-treated control from two independent DMSO-treated control samples was used. The relative expression level of target gene was calculated by using the equation:
relative expression=2^−ΔΔCT

## CC1=C[C@H]2[C@@]3(O)[C@H](C)C[C@]4(OC(=O)[C@@H](N)[C@]56C[C@H]7C[C@H](C[C@H](C7)C5)C6)[C@H]([C@@H]3C=C(CO)C[C@]2(O)C1=O)C4(C)C
read-out: CCL2 gene relative expression, 0.01 μM, 4 h, vs DMSO
  fold induction at 0.01 µM: 5.58
read-out: CCL2 gene relative expression, 0.03 μM, 4 h, vs DMSO
  fold induction at 0.03 µM: 3.59
read-out: CCL2 gene relative expression, 0.10 μM, 4 h, vs DMSO
  fold induction at 0.1 µM: 0.38
read-out: GM-CSF gene relative expression, 0.01 μM, 4 h, vs DMSO
  fold induction at 0.01 µM: 1.59
read-out: GM-CSF gene relative expression, 0.03 μM, 4 h, vs DMSO
  fold induction at 0.03 µM: 8.38
read-out: GM-CSF gene relative expression, 0.10 μM, 4 h, vs DMSO
  fold induction at 0.1 µM: 16.1
read-out: IFN-α gene relative expression, 0.01 μM, 4 h, vs DMSO
  fold induction at 0.01 µM: 0.78
read-out: IFN-α gene relative expression, 0.03 μM, 4 h, vs DMSO
  fold induction at 0.03 µM: 0.46
read-out: IFN-α gene relative expression, 0.10 μM, 4 h, vs DMSO
  fold induction at 0.1 µM: 0.31
read-out: IFNγ gene relative expression, 0.01 μM, 4 h, vs DMSO
  fold induction at 0.01 µM: 1.69
read-out: IFNγ gene relative expression, 0.03 μM, 4 h, vs DMSO
  fold induction at 0.03 µM: 3.82
read-out: IFNγ gene relative expression, 0.10 μM, 4 h, vs DMSO
  fold induction at 0.1 µM: 18.1
read-out: IL-1β gene relative expression, 0.01 μM, 4 h, vs DMSO
  fold induction at 0.01 µM: 0.59
read-out: IL-1β gene relative expression, 0.03 μM, 4 h, vs DMSO
  fold induction at 0.03 µM: 2.26
read-out: IL-1β gene relative expression, 0.10 μM, 4 h, vs DMSO
  fold induction at 0.1 µM: 3
read-out: IL-2 gene relative expression, 0.01 μM, 4 h, vs DMSO
  fold induction at 0.01 µM: 3.06
read-out: IL-2 gene relative expression, 0.03 μM, 4 h, vs DMSO
  fold induction at 0.03 µM: 7.78
read-out: IL-2 gene relative expression, 0.10 μM, 4 h, vs DMSO
  fold induction at 0.1 µM: 3.29
read-out: IL-4 gene relative expression, 0.01 μM, 4 h, vs DMSO
  fold induction at 0.01 µM: 0.84
read-out: IL-4 gene relative expression, 0.03 μM, 4 h, vs DMSO
  fold induction at 0.03 µM: 2.54
read-out: IL-4 gene relative expression, 0.10 μM, 4 h, vs DMSO
  fold induction at 0.1 µM: 2.77
read-out: IL-6 gene relative expression, 0.01 μM, 4 h, vs DMSO
  fold induction at 0.01 µM: 1.17
read-out: IL-6 gene relative expression, 0.03 μM, 4 h, vs DMSO
  fold induction at 0.03 µM: 0.86
read-out: IL-6 gene relative expression, 0.10 μM, 4 h, vs DMSO
  fold induction at 0.1 µM: 6.72
read-out: IL-8 gene relative expression, 0.01 μM, 4 h, vs DMSO
  fold induction at 0.01 µM: 0.71
read-out: IL-8 gene relative expression, 0.03 μM, 4 h, vs DMSO
  fold induction at 0.03 µM: 0.54
read-out: IL-8 gene relative expression, 0.10 μM, 4 h, vs DMSO
  fold induction at 0.1 µM: 0.6
read-out: IL-10 gene relative expression, 0.01 μM, 4 h, vs DMSO
  fold induction at 0.01 µM: 1.12
read-out: IL-10 gene relative expression, 0.03 μM, 4 h, vs DMSO
  fold induction at 0.03 µM: 0.41
read-out: IL-10 gene relative expression, 0.10 μM, 4 h, vs DMSO
  fold induction at 0.1 µM: 0.09
read-out: IL-12p40 gene relative expression, 0.01 μM, 4 h, vs DMSO
  fold induction at 0.01 µM: 0.89
read-out: IL-12p40 gene relative expression, 0.03 μM, 4 h, vs DMSO
  fold induction at 0.03 µM: 0.32
read-out: IL-12p40 gene relative expression, 0.10 μM, 4 h, vs DMSO
  fold induction at 0.1 µM: 0.22
read-out: IL-12p70 gene relative expression, 0.01 μM, 4 h, vs DMSO
  fold induction at 0.01 µM: 1.03
read-out: IL-12p70 gene relative expression, 0.03 μM, 4 h, vs DMSO
  fold induction at 0.03 µM: 0.87
read-out: IL-12p70 gene relative expression, 0.10 μM, 4 h, vs DMSO
  fold induction at 0.1 µM: 0.76
read-out: IL-13 gene relative expression, 0.01 μM, 4 h, vs DMSO
  fold induction at 0.01 µM: 3.1
read-out: IL-13 gene relative expression, 0.03 μM, 4 h, vs DMSO
  fold induction at 0.03 µM: 52.6
read-out: IL-13 gene relative expression, 0.10 μM, 4 h, vs DMSO
  fold induction at 0.1 µM: 101
read-out: IL-18 gene relative expression, 0.01 μM, 4 h, vs DMSO
  fold induction at 0.01 µM: 0.26
read-out: IL-18 gene relative expression, 0.03 μM, 4 h, vs DMSO
  fold induction at 0.03 µM: 0.06
read-out: IL-18 gene relative expression, 0.10 μM, 4 h, vs DMSO
  fold induction at 0.1 µM: 0.06
read-out: ISG15 gene relative expression, 0.01 μM, 4 h, vs DMSO
  fold induction at 0.01 µM: 1.01
read-out: ISG15 gene relative expression, 0.03 μM, 4 h, vs DMSO
  fold induction at 0.03 µM: 1.33
read-out: ISG15 gene relative expression, 0.10 μM, 4 h, vs DMSO
  fold induction at 0.1 µM: 1.54
read-out: MIP1a (CCL3) gene relative expression, 0.01 μM, 4 h, vs DMSO
  fold induction at 0.01 µM: 1.65
read-out: MIP1a (CCL3) gene relative expression, 0.03 μM, 4 h, vs DMSO
  fold induction at 0.03 µM: 2.82
read-out: MIP1a (CCL3) gene relative expression, 0.10 μM, 4 h, vs DMSO
  fold induction at 0.1 µM: 5.73
read-out: MX1 gene relative expression, 0.01 μM, 4 h, vs DMSO
  fold induction at 0.01 µM: 0.84
read-out: MX1 gene relative expression, 0.03 μM, 4 h, vs DMSO
  fold induction at 0.03 µM: 1.01
read-out: MX1 gene relative expression, 0.10 μM, 4 h, vs DMSO
  fold induction at 0.1 µM: 0.99
read-out: OAS1 gene relative expression, 0.01 μM, 4 h, vs DMSO
  fold induction at 0.01 µM: 0.74
read-out: OAS1 gene relative expression, 0.03 μM, 4 h, vs DMSO
  fold induction at 0.03 µM: 0.78
read-out: OAS1 gene relative expression, 0.10 μM, 4 h, vs DMSO
  fold induction at 0.1 µM: 0.69
read-out: TNF-α gene relative expression, 0.01 μM, 4 h, vs DMSO
  fold induction at 0.01 µM: 2.39
read-out: TNF-α gene relative expression, 0.03 μM, 4 h, vs DMSO
  fold induction at 0.03 µM: 4.48
read-out: TNF-α gene relative expression, 0.10 μM, 4 h, vs DMSO
  fold induction at 0.1 µM: 6.25

— patent US20260364168A1, “USE OF PROTEIN KINASE C (PKC) ACTIVATING COMPOUNDS AS AN ADJUVANT” (priority 2022, published 2026)
